Assay results from patent US12180207B2 (ARRAY BIOPHARMA INC., priority 2018, dated 2024).

Key:
[1] = target: dephosphorylated FGFR1 (SEQ ID NO: 1, amino acids 458 to 765) (Homo sapiens (Human), UniProt P11362); assay: FGFR enzyme binding assay (HTRF tracer displacement), FGFR1; conditions: 5 nM dephosphorylated FGFR1, average of multiple determinations if made
Procedure: (§1) The potency of compounds inhibiting human isoforms of FGFR kinase was determined using Life Technologies' Homogeneous Time Resolved Fluorescence (HTRF)-based binding assay technology. […] After a 60 minute incubation at 22° C., the extent of tracer displacement was determined using a PerkinElmer EnVision multimode plate reader via HTRF dual wavelength detection, and the percent of control (POC) was calculated using a ratiometric emission factor. One hundred POC was determined using no test compound, and 0 POC was determined in the presence of 1 μM of an appropriate control inhibitor.

[2] = target: phosphorylated FGFR3 (SEQ ID NO: 5, amino acids 449 to 759) (Homo sapiens (Human), UniProt P22607); assay: FGFR enzyme binding assay (HTRF tracer displacement), FGFR3; conditions: 5 nM phosphorylated FGFR3, average of multiple determinations if made
Chain of phosphorylated FGFR3 (SEQ ID NO: 5, amino acids 449 to 759) (P22607 449-759): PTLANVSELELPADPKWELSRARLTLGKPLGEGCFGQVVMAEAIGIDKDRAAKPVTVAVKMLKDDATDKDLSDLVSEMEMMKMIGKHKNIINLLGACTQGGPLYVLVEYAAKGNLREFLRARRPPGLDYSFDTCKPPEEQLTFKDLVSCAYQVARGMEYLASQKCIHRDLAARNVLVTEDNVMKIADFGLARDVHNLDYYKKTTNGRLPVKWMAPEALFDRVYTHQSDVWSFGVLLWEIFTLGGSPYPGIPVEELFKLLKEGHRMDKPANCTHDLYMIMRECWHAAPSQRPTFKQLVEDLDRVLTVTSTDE
Procedure: as §1

[3] = target: recombinant human FGFR3 (amino acids R397-T806) (Homo sapiens (Human), UniProt P22607); assay: FGFR3 enzyme activity assay (LanthaScreen TR-FRET); assay type: biochemical; conditions: 25 μM ATP, 10 min incubation at 22° C., average of multiple determinations if made, read-out: FGFR3 Enz FRET IC50
Chain of recombinant human FGFR3 (amino acids R397-T806) (P22607 397-806): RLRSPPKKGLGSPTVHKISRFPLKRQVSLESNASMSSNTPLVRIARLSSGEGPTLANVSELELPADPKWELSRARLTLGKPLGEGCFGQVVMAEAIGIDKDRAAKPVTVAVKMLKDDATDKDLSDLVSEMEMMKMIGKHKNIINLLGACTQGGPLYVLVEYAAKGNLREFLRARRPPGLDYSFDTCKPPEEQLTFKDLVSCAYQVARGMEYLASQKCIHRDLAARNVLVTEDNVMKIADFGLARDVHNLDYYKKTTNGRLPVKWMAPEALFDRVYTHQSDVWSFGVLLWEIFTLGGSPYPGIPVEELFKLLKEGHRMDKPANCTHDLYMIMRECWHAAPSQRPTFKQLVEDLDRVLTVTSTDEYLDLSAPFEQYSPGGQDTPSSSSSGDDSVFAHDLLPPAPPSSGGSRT
Procedure: FGFR3 kinase activity was measured by the Invitrogen LanthaScreen™ Assay technology which directly measures the amount of substrate phosphorylation by TR-FRET using a fluorescently-labeled peptide and Europium-labeled antibody. Briefly, […] N-terminal GST-HIS6 fusion protein with a 3C cleavage site recombinant human FGFR3 (amino acids R397-T806) (ProQinase Cat. No. 1068-0000-1) was incubated with 100 nM Alexa Fluor® 647-Poly-GT Peptide Substrate (Life Technologies Cat. No. PV5836) and 25 μM ATP along with test compound in a buffer consisting of 250 mM HEPES, 25 mM MgCl2, 0.05% TritonX-100, pH 7.5, and 2% DMSO. […] After a 10 minute incubation at 22° C., an equal volume of 2 nM LanthaScreen® Eu-PY20 Antibody (Life Technologies Cat. No. PV5691) and 10 mM EDTA were added to quench the kinase reaction and start the detection reaction. After an additional 60 minute incubation at 22° C., the reaction was measured using a PerkinElmer EnVision multimode plate reader via TR-FRET dual wavelength detection, and the percent of control (POC) calculated using a ratiometric emission factor. 100 POC was determined using no test compounds and 0 POC was determined using no enzyme. The POC values were fit to a 4-parameter logistic curve as a function of the concentration of the compound, and the IC50 value is the point where the curve crosses 50 POC.

[4] = target: recombinant human FGFR2 cytoplasmic domain (amino acids 403-822) (Homo sapiens (Human), UniProt P21802); assay: FGFR2 enzyme activity assay (LanthaScreen TR-FRET); assay type: biochemical; conditions: 15 μM ATP, 20 min incubation at 22° C., average of multiple determinations if made, read-out: FGFR2 Enz FRET IC50
Chain of recombinant human FGFR2 cytoplasmic domain (amino acids 403-822) (P21802 402-821): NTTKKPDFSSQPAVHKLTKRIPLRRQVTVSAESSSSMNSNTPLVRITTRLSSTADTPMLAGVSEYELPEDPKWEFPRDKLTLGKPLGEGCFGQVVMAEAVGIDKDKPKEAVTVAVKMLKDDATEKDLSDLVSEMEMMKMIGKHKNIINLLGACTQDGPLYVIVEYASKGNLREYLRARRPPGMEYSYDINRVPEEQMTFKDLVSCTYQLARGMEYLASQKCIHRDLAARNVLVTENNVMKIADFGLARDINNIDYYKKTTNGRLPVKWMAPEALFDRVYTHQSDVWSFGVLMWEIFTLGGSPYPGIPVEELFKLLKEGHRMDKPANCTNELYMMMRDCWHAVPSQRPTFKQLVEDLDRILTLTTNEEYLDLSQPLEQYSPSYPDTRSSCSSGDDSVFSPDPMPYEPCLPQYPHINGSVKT
Procedure: FGFR2 kinase activity was measured by the Invitrogen LanthaScreen™ Assay technology which directly measures the amount of substrate phosphorylation by TR-FRET using a fluorescently-labeled peptide and Europium-labeled antibody. Briefly, […] His-tagged recombinant human FGFR2 cytoplasmic domain (amino acids 403-822) (Life Technologies Cat. No. PR5332A) was incubated with 100 nM Alexa Fluor® 647-Poly-GT Peptide Substrate (Life Technologies Cat. No. PV5836) and 15 μM ATP along with test compound in a buffer consisting of 250 mM HEPES, 25 mM MgCl2, 0.05% TritonX-100, pH 7.5, and 2% DMSO. […] After a 20 minute incubation at 22° C., an equal volume of 2 nM LanthaScreen® Eu-PY20 Antibody (Life Technologies Cat. No. PV5691) and 10 mM EDTA were added to quench the kinase reaction and start the detection reaction. After an additional 60 minute incubation at 22° C., the reaction was measured using a PerkinElmer EnVision multimode plate reader via TR-FRET dual wavelength detection, and the percent of control (POC) calculated using a ratiometric emission factor. 100 POC was determined using no test compounds and 0 POC was determined using no enzyme. The POC values were fit to a 4-parameter logistic curve as a function of the concentration of the compound, and the IC50 value is the point where the curve crosses 50 POC.

[5] = target: recombinant human FGFR1 catalytic domain (amino acids 308-731) (Homo sapiens (Human), UniProt P11362); assay: FGFR1 enzyme activity assay (LanthaScreen TR-FRET); assay type: biochemical; conditions: 20 min incubation at 22° C., average of multiple determinations if made, read-out: FGFR1 Enz FRET IC50
Chain of recombinant human FGFR1 catalytic domain (amino acids 308-731) (P11362 other isoform, or with tags, fused parts or gaps): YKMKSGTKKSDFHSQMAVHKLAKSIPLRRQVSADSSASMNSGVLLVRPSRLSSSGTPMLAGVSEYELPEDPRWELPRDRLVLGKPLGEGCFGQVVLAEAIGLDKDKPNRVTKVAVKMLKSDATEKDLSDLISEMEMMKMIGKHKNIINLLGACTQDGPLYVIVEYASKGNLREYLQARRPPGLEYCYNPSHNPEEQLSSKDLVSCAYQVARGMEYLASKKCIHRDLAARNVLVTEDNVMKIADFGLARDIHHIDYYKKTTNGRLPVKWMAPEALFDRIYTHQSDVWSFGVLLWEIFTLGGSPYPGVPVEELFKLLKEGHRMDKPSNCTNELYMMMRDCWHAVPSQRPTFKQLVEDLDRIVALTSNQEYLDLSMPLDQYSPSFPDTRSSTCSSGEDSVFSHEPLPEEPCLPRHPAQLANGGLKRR
Procedure: FGFR1 kinase activity was measured by the Invitrogen LanthaScreen™ Assay technology which directly measures the amount of substrate phosphorylation by Time-resolved fluorescence energy transfer (TR-FRET) using a fluorescently-labeled peptide and Europium-labeled antibody. Briefly, […] His-tagged recombinant human FGFR1 catalytic domain (amino acids 308-731) (Life Technologies Cat. No. PR4660A) was incubated with 100 nM Alexa Fluor® 647-Poly-GT Peptide Substrate (Life Technologies Cat. No. PV5836) and […] ATP along with test compound in a buffer consisting of 250 mM HEPES, 25 mM MgCl2, 0.05% TritonX-100, pH 7.5, and 2% DMSO. […] After a 20 minutes incubation at 22° C., an equal volume of 2 nM LanthaScreen® Eu-PY20 Antibody (Life Technologies Cat. No. PV5691) and 10 mM EDTA was added to quench the kinase reaction and start the detection reaction. After an additional 60 minute incubation at 22° C., the reaction was measured using a PerkinElmer EnVision multimode plate reader via TR-FRET dual wavelength detection, and the percent of control (POC) calculated using a ratiometric emission factor. 100 POC was determined using no test compounds and 0 POC was determined using no enzyme. The POC values were fit to a 4-parameter logistic curve as a function of the concentration of the compound, and the IC50 value is the point where the curve crosses 50 POC.

[6] = target: FGFR1 (SEQ ID NO: 1, amino acids 458-765) (Homo sapiens (Human), UniProt P11362); assay: LC/MS FGFR1 kobs assay (covalent protein modification); assay type: binding; conditions: 500 nM FGFR1, 3 μM compound
Chain of FGFR1 (SEQ ID NO: 1, amino acids 458-765) (P11362 458-765): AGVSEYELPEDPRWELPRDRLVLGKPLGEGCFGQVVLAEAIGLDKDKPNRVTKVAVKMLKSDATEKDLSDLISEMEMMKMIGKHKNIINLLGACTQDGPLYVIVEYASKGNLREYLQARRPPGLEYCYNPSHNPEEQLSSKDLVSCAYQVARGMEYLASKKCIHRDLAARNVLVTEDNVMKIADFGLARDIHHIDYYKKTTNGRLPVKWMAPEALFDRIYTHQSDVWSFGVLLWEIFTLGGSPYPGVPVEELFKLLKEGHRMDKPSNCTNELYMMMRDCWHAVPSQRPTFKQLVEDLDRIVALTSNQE
Procedure: (§2) The LC/MS FGFR1 and FGFR3 kobs assays were conducted as follows. […] At each time point, the reaction was quenched with 20 μL of 0.4% formic acid. The extent of protein modification by each compound was determined by LC/MS on an Agilent Technologies 6520 Q-TOF LC/MS. Protein signals were then automatically deconvoluted using Agilent Masshunter software. Deconvoluted mass signals were exported to Tibco Spotfire data analysis program for further processing and normalization.
(§3) Data analysis included five steps. First, the signals for the “DMSO Controls” were analyzed to determine the percent of signal associated with unmodified FGFR1 or FGFR3 at each time point. Next, the percent of the signal associated with the covalent modification was determined. Third, the average nonmodified “DMSO Control” signal was used to normalize the modified protein signals at each time point. The percent of unmodified protein was fit to an exponential decay model where A0 is the Percent Unmodified at the start of the reaction, and kobs is the observed rate constant over the time period.

[7] = target: FGFR3 (SEQ ID NO: 5, amino acids 449-759) (Homo sapiens (Human), UniProt P22607); assay: LC/MS FGFR3 kobs assay (covalent protein modification); assay type: binding; conditions: 500 nM FGFR3, 3 μM compound
Chain of FGFR3 (SEQ ID NO: 5, amino acids 449-759) (P22607 449-759): as the sequence (P22607 449-759) above
Procedure: as §2, §3
Table EC contains kobs values for compounds tested in these assays, presented as the average of multiple determinations if multiple determinations were made. ND=not determined.

Chain of dephosphorylated FGFR1 (SEQ ID NO: 1, amino acids 458 to 765) (P11362 458-765): as the sequence (P11362 458-765) above

`C=CC(=O)N1CCN(C(=O)N2CCC(n3cc(-c4cc(OC)c5c(C#N)cnn5c4)cn3)CC2)CC1` [Example 2, 6-(1-(1-(4-acryloylpiperazine-1-carbonyl)piperidin-4-yl)-1H-pyrazol-4-yl)-4-methoxypyrazolo[1,5-a]pyridine-3-carbonitrile] showed an IC50 [1] of 45 nM, an IC50 [2] of 4 nM and an IC50 [3] of 4 nM. The IC50 [4] was 14 nM, the IC50 [5] was 4 nM and the “FGFR1 Enz kobs” value [6] was 0.00076 min⁻¹. The “FGFR3 Enz kobs” value [7] was 0.00444 min⁻¹.

Molecule `C=CC(=O)N1CC2CC(C1)N2C(=O)N1CCC(n2cc(-c3cc(OC)c4c(C#N)cnn4c3)cn2)CC1` [Example 4, 6-(1-(1-(3-acryloyl-3,6-diazabicyclo[3.1.1]heptane-6-carbonyl)piperidin-4-yl)-1H-pyrazol-4-yl)-4-methoxypyrazolo[1,5-a]pyridine-3-carbonitrile] has an IC50 [1] of 42 nM, an IC50 [2] of 6 nM and an IC50 [3] of 3 nM. The IC50 [4] was 4 nM, the IC50 [5] was 11 nM and the “FGFR1 Enz kobs” value [6] was 0.00052 min⁻¹. For the same molecule, the “FGFR3 Enz kobs” value [7] was 0.00283 min⁻¹.

Work on `C=CC(=O)N1C[C@H]2C[C@@H]1CN2C(=O)N1CCC(n2cc(-c3cc(OC)c4c(C#N)cnn4c3)cn2)CC1` [Example 5, 6-(1-(1-((1R,4R)-5-acryloyl-2,5-diazabicyclo[2.2.1]heptane-2-carbonyl)piperidin-4-yl)-1H-pyrazol-4-yl)-4-methoxypyrazolo[1,5-a]pyridine-3-carbonitrile] yielded an IC50 [1] of 47 nM, an IC50 [2] of 5 nM and an IC50 [3] of 7 nM. The IC50 [4] was 11 nM, the IC50 [5] was 25 nM and the “FGFR1 Enz kobs” value [6] was 0.00047 min⁻¹. For the same molecule, the “FGFR3 Enz kobs” value [7] was 0.00287 min⁻¹.

Molecule `C=CC(=O)N1CCC[C@H](C(=O)N2CCC(n3cc(-c4cc(OC)c5c(C#N)cnn5c4)cn3)CC2)C1` [Example 16, (S)-6-(1-(1-(1-acryloylpiperidine-3-carbonyl)piperidin-4-yl)-1H-pyrazol-4-yl)-4-methoxypyrazolo[1,5-a]pyridine-3-carbonitrile] has an IC50 [1] of 31 nM, an IC50 [2] of 6 nM and an IC50 [3] of 2 nM. The IC50 [4] was 4 nM, the IC50 [5] was 20 nM and the “FGFR1 Enz kobs” value [6] was 0.00054 min⁻¹. For the same molecule, the “FGFR3 Enz kobs” value [7] was 0.00124 min⁻¹.

For `C=CC(=O)N1CCC[C@@H](C(=O)N2CC[C@H](n3cc(-c4cc(OC)c5c(C#N)cnn5c4)cn3)C2)C1` [Example 64, 6-(1-((S)-1-((R)-1-acryloylpiperidine-3-carbonyl)pyrrolidin-3-yl)-1H-pyrazol-4-yl)-4-methoxypyrazolo[1,5-a]pyridine-3-carbonitrile], the IC50 [1] was 94 nM, the IC50 [2] was 20 nM and the IC50 [3] was 2 nM. For the same molecule, the IC50 [4] was 5 nM, the IC50 [5] was 23 nM and the “FGFR3 Enz kobs” value [7] was 0.00074 min⁻¹.

With `C=CC(=O)N[C@H]1CC[C@H](C(=O)N2CC[C@H](n3cc(-c4cc(OC)c5c(C#N)cnn5c4)cn3)C2)CC1` [Example 65, N-((1S,4r)-4-((S)-3-(4-(3-cyano-4-methoxypyrazolo[1,5-a]pyridin-6-yl)-1H-pyrazol-1-yl)pyrrolidine-1-carbonyl)cyclohexyl)acryl-amide] the IC50 [1] was 177 nM, the IC50 [2] was 56 nM and the IC50 [3] was 3 nM. The IC50 [4] was 6 nM, the IC50 [5] was 26 nM and the “FGFR3 Enz kobs” value [7] was 0.0002 min⁻¹.

In the case of `C=CC(=O)N[C@H]1C[C@H](C(=O)N2CC[C@H](n3cc(-c4cc(OC)c5c(C#N)cnn5c4)cn3)C2)C1` [Example 74, N-((1S,3r)-3-((S)-3-(4-(3-cyano-4-methoxypyrazolo[1,5-a]pyridin-6-yl)-1H-pyrazol-1-yl)pyrrolidine-1-carbonyl)cyclobutyl)acryl-amide], the IC50 [1] is reported as 18 nM, the IC50 [2] is reported as 3 nM and the IC50 [3] is reported as 2 nM. For the same molecule, the IC50 [4] was 6 nM, the IC50 [5] was 19 nM and the “FGFR3 Enz kobs” value [7] was 0.00063 min⁻¹.

Molecule `C=CC(=O)N[C@H]1C[C@H](C(=O)N2CC(n3cc(-c4cc(OC)c5c(C#N)cnn5c4)cn3)C2)C1` [Example 79, N-((1r,3r)-3-(3-(4-(3-cyano-4-methoxypyrazolo[1,5-a]pyridin-6-yl)-1H-pyrazol-1-yl)azetidine-1-carbonyl)cyclobutyl)acryl-amide] has an IC50 [1] of 447 nM, an IC50 [2] of 79 nM and an IC50 [3] of 10 nM. For the same molecule, the IC50 [4] was 11 nM, the IC50 [5] was 36 nM and the “FGFR3 Enz kobs” value [7] was 0.00116 min⁻¹.

`CC#CC(=O)N1CC(C(=O)N2CCC(n3cc(-c4cc(OC)c5c(C#N)cnn5c4)cn3)CC2)C1` [Example 139, 6-(1-(1-(1-(but-2-ynoyl)azetidine-3-carbonyl)piperidin-4-yl)-1H-pyrazol-4-yl)-4-methoxypyrazolo [1,5-a]pyridine-3-carbonitrile] showed an IC50 [1] of 104 nM, an IC50 [2] of 11 nM and an IC50 [3] of 4 nM. For the same molecule, the IC50 [5] was 13 nM, the “FGFR1 Enz kobs” value [6] was 0.00047 min⁻¹ and the “FGFR3 Enz kobs” value [7] was 0.00281 min⁻¹.
